Like-named read-outs stand apart in the source and are kept apart here.
Assays:
MRC-5 cytotoxicity = assay type: cell-based; conditions: human, MRC-5 cells; S1 Data
[1] = Mouse liver microsomal stability; assay type: in vitro ADME; conditions: for microsomal CLint at 0.5 μM: CD1, mouse, liver microsomes
Protocol: The metabolic stability of the compounds was evaluated in human (pool of 200 donors, XenoTech) and mouse liver microsomes (CD1 mouse, GIBCO). Test compounds were prepared at a concentration of 0.5 μM and incubated with 0.25 mg/mL liver microsomes at pH 7.4 and 37°C. The reaction was started by addition of NADPH at […]. Samples were taken at 0, 5, 10, 15, 20 and 30 minutes. The reaction was stopped by the addition of acetonitrile:methanol (1:1) containing an internal standard (tolbutamide at 50 nM). Compounds were quantified by liquid chromatography triple quadrupole mass spectrometry (LC-MS/MS). Peak area ratios (analyte/internal standard) were converted to % remaining using the area ratio at time 0 as 100%. Half-life (t1/2 = ln(2)/k) in minutes and intrinsic clearance (Clint = k x 1000/(0.25)) in μL/min/mg were calculated using a non-linear regression from % remaining versus incubation time. From this plot, the slope (k) was determined. The analysis conditions were: analytical column (Gemini C18, […], Phenomenex), electrospray ionization source (ESI) in positive and negative mode, mobile phase A (water + 0.1% formic acid) and B (acetonitrile + 0.1% formic acid), flow rate of 0.7 mL/min.

[2] = tested on: Leishmania infantum MHOM/MA(BE)/67/ITMAP263 amastigotes; assay: L. infantum intracellular amastigote assay in PMM; assay type: cell-based; conditions: for IC50: Leishmania infantum, read-out: L. infantum IC50; for SI: selectivity index (CC50 / IC50): CC50 / L. infantum IC50
Protocol: (§1) Leishmania infantum MHOM/MA(BE)/67/ITMAP263 amastigotes were collected from the spleen of infected donor Golden hamsters. Primary peritoneal mouse macrophages (PMM) were used as host cells for in vitro assays. PMM were collected from Swiss mice after 2 days of peritoneal stimulation with a 2% suspension of potato starch and maintained in RPMI-1640 medium supplemented with 200 mM L-glutamine, antibiotics and 5% FCS at 37°C and 5% CO2. Promastigotes of L. infantum chagasi (luciferase) (MHOM/BR/2005/NLC) obtained as described in Reimão et al.,[27] were grown in M199 medium supplemented with 10% FCS, 0.25% hemin, 32 μg/ml hygromycin and 2% sterile human urine at 25°C and 5% CO2.
(§2) Stock solutions of the compounds at 20 mM were prepared in 100% DMSO. Next, the compounds were serially pre-diluted in DMSO followed by a further dilution in demineralized water to assure a final in-test DMSO concentration below 1%. The compounds were tested at 4-fold dilutions starting at 64 μM.
For the antileishmania in vitro assays, 3×10^4 PMM/well were seeded in 96-well plates. After 24h, 5×10^5 amastigotes/well were added and incubated for 2h at 37°C. Next, the compounds in 4-fold serial dilutions were added and the plates were further incubated for 5 days (37°C, 5% CO2). Parasite burdens were assessed using an inverted microscope after Giemsa staining. The results were expressed as percent reduction in parasite burdens compared to negative control wells (100% growth) and IC50 values were determined. Values represent the geometric mean of at least two independent experiments. Miltefosine was used as the positive control in all plates.

[3] = Experimental distribution coefficient (eLogD); assay type: physicochemical; conditions: pH 7.4
Protocol: To determine the lipophilicity of the compounds, a methodology based on the retention time of molecules in reverse stationary phase (Ascentis RP-Amide HPLC column) was used. The chromatogram was obtained using LC-MS/MS. Test compounds were prepared at 1.0 μg/mL by adding the stock solution at (1:1) mobile phases A:B + internal standard at 200nM (A: 5% methanol in 10mM ammonium acetate pH 7.4, B: 100% methanol), DMSO concentration must be lower than 2%. […] The retention time (in minutes) of each of the eight standards was plotted against their LogD values. The resulting equation for the calibration curve (y = mx + b) was used to calculate the LogD values for the test compounds.

[4] = tested on: PMM (Primary Mouse Macrophages); assay: Cytotoxicity on primary peritoneal mouse macrophages; assay type: cell-based; conditions: Mus musculus, Macrophage, read-out: PMM IC50
Protocol: as §1, §2

[5] = Parallel artificial membrane permeability assay (PAMPA); assay type: in vitro ADME; conditions: PAMPA, S1 Data; read-out: PAMPA Pe
Protocol: To determine the passive permeability of the compounds, a 96-well plate containing membranes pre-coated with lipids (Corning Gentest # 353015) was used. The solutions of the compounds were prepared by diluting the stock solutions (10mM) in phosphate buffered saline (PBS) pH 6.5 at a final concentration of 10μM. The solutions diluted in PBS pH 6.5 were then added to the donor portion of the plate (300 μl/well), while PBS pH 7.4 (200 μl/well) was added to the acceptor portion. The two portions of the plate were then coupled, and the system was incubated for 5 h at 37°C. At the end of the incubation, samples were collected from the donor and acceptor plates, and then added to plates containing quench solution (10% water and 90% methanol: acetonitrile (50:50) + 50 nM tolbutamide). The final concentrations of compounds in the donor, acceptor, and initial solution (T0) wells were analyzed using LC-MS/MS. The results were used to calculate an effective permeability (Pe) value. The PAMPA assay was performed in triplicate (n = 3).

[6] = pH 7.4, S1 Data, read-out: MLM CLint
[7] = 120 h, intracellular amastigotes in PMM, 5 days
[8] = reverse stationary phase HPLC column (Ascentis RP-Amide), S1 Data
[9] = reverse-phase HPLC retention (Ascentis RP-Amide column), experimental

SMILES	CC50 (MRC-5 cytotoxicity) [µM]	microsomal CLint at 0.5 μM [1, 6] [µL/min/mg]	IC50 [2, 7] [µM]	IC50 ([2]; S1 Data) [µM]	chromatographic logD [3, 8]	IC50 [4] [µM]	Papp at 5 h, 10 μM [5] [×10⁻⁶ cm/s]	microsomal CLint at 0.5 μM ([1]; pH 7.4, mouse liver microsome intrinsic clearance, read-out: MLM Clint) [µL/min/mg]	SI: selectivity index (CC50 / IC50) [2]	chromatographic logD [3, 9]	MLM CLint ([1]; S1 Data) [µL/min/mg]	eLogD ([3]; experimental)	MLM CLint ([1]; mouse liver microsome intrinsic clearance) [µL/min/mg]
O=C(Cc1ccc(F)cc1)Nc1nc2cc(F)ccc2n1CCCN1CCOCC1 [Compound 27, Fc1cc(nc(NC(=O)Cc2ccc(F)cc2)n3CCCN4CCOCC4)c3cc1]	60.9	335	24	23.5	3.42	45.2	4.74						
O=C(Cc1ccc(F)cc1)Nc1nc2cc(F)ccc2n1C1CCOCC1 [Compound 28, Fc1cc(nc(NC(=O)Cc2ccc(F)cc2)n3C4CCOCC4)c3cc1]	> 64	133	13	12.7	3.32	> 64	19.6						
Cn1nccc1C(=O)Nc1nc2ccc(C#N)cc2n1C1CCOCC1 [Compound 32, O=C(c1ccnn1C)Nc2nc(ccc(C#N)c3)c3n2C4CCOCC4]	> 64	< 23		> 64	2.32	> 64	11	23	1	2.3			
Cn1ccc(C(=O)Nc2nc3ccc(C#N)cc3n2CC(F)(F)F)n1 [Compound 35, O=C(c1nn(C)cc1)Nc2nc(ccc(C#N)c3)c3n2CC(F)(F)F]	58.2		26	25.7	4.15	32	13.9		1		73	4.2	
CC(C)(C)Cn1c(NC(=O)c2ccn(CCO)n2)nc2ccc(C#N)cc21 [Compound 38, O=C(c1nn(CCO)cc1)Nc2nc(ccc(C#N)c3)c3n2CC(C)(C)C]	> 64	< 23		> 64	4.03	> 64	7.54		1	4			
CC(C)(C)Cn1c(NC(=O)c2ccccn2)nc2ccc(C#N)cc21 [Compound 40, CC(Cn1c(NC(=O)c2ccccn2)nc(c13)ccc(C#N)c3)(C)C]	60.9	1030	15	14.9	3.93	16	3.62		1	4			
CN1CCC(n2c(NC(=O)c3ccnn3C)nc3ccc(C#N)cc32)CC1 [Compound 51, O=C(c1ccnn1C)Nc2nc(ccc(C#N)c3)c3n2C4CCN(C)CC4]	> 64		20	20.2		50.8	2.91		3		72		
Cn1nccc1C(=O)Nc1nc2cccnc2n1CC(F)(F)F [Compound 53, O=C(c1ccnn1C)Nc2nc(cccn3)c3n2CC(F)(F)F]	6.83	118	8.2	8.18		32	24.3		4				119

Source: article PMC7932521, “2-aminobenzimidazoles for leishmaniasis: From initial hit discovery to in vivo profiling” (PLoS Neglected Tropical Diseases, 2021)
